Values after ≈ are worked out from the molar mass of the structure shown.
Tests used:
CYP3A4 = assay: Inhibition of CYP3A4 in Sprague-Dawley rat liver microsome assessed as remaining activity by measuring 1'-hydroxylation of midazolam at 3 x 10^-5 M after 20 mins; assay type: ADME; conditions: liver microsomes, probe midazolam (1'-hydroxylation), read-out: INH
Rattus norvegicus [1] = assay: Antiinflammatory activity in rat assessed as inhibition of carrageenan-induced paw edema at 20 mg/kg , po incubated for 30 mins followed by carrageenan treatment further incubated for 3 hrs by plethysmometer relative to ibuprofen; assay type: functional
[2] = system: Mycobacterium tuberculosis; assay: Antimycobacterial activity against Mycobacterium tuberculosis H37Rv ATCC 27294 at 0.19 to 100 ug/ml incubated for 4 days by microplate alamar blue assay; assay type: functional, organism-based; conditions: H37Rv ATCC 27294, 96 h
Diaphania hyalinata = assay: Insecticidal activity against Diaphania hyalinata assessed as reduction in living insects observed after 48 hrs; assay type: functional
Globisporangium ultimum = assay: Antifungal activity against Pythium ultimum assessed as reduction in fungal cell growth incubated for 48 hrs by broth dilution method; assay type: functional
Rattus norvegicus [3] = assay: Antiinflammatory activity in rat assessed as inhibition of carrageenan-induced paw edema at 10 mg/kg , po and measured after 4 hrs of carrageenan addition relative to control; assay type: functional
Mus musculus = assay: Analgesic activity in albino mouse assessed as inhibition of acetic acid induced writhing at 10 mg/kg , po; assay type: functional
[4] = Ulcerogenicity in Wistar rat assessed as gastric lesions by measuring ulcer severity index at 60 mg/kg , po measured after 17 hrs relative to control; assay type: toxicity, organism-based; conditions: in vivo
[5] = target: Prostaglandin G/H synthase 2 (Mus musculus, UniProt Q05769); assay: Inhibition of mouse COX-2 in LPS-induced mouse peritoneal macrophage assessed as reduction in PGE2 release incubated for 2 hrs by ELISA
Sequence of Prostaglandin G/H synthase 2 (Q05769 whole entry): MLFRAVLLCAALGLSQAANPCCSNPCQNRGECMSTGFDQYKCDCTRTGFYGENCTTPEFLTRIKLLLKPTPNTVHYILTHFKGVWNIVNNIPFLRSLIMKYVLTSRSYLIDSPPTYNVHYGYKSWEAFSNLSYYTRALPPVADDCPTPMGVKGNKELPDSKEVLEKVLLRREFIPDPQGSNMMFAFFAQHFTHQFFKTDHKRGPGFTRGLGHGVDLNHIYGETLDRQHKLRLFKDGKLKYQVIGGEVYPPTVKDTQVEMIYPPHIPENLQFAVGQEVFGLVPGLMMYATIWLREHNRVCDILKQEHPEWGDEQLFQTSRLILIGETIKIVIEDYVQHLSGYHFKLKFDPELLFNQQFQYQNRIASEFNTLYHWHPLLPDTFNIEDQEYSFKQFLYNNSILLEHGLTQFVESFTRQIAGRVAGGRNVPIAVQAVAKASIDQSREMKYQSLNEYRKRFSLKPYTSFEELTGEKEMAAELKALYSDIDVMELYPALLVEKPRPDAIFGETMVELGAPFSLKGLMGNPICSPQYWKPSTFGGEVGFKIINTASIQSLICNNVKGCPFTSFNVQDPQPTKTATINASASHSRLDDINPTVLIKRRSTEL

[6] = Ulcerogenicity in Sprague-Dawley rat assessed as gastric lesions at 50 mg/kg , po bid measured after 4 hrs; assay type: toxicity, organism-based; conditions: in vivo
Rattus norvegicus [7] = species on record: Rattus norvegicus; assay: Antiarthritic activity in adjuvant-induced Sprague-Dawley rat; assay type: functional
Rattus norvegicus [8] = assay: Antiinflammatory activity in Sprague-Dawley rat assessed as inhibition of carrageenan-induced paw edema at 3 mg/kg , po incubated for 1 hr followed by carrageenan addition and measured after 4 hrs relative to control; assay type: functional
Rattus norvegicus [9] = assay: Antiinflammatory activity in Sprague-Dawley rat assessed as inhibition of carrageenan-induced paw edema at 3 mg/kg , po relative to control; assay type: functional
Phospholipase A2 = Phospholipase A2 (Apis mellifera, UniProt P00630); assay: Inhibition of bee venom phospholipase A2
Sequence of Phospholipase A2 (P00630 whole entry): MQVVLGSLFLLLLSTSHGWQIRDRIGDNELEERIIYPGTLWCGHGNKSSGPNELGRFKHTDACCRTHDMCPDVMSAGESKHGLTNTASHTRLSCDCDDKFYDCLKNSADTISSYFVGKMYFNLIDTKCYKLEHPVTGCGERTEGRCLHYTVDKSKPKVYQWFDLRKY

Escherichia coli = assay: Inhibition of swarming motility of Escherichia coli at 13 ug/cm2; assay type: functional
Bacillus subtilis [10] = assay: Antibiofilm activity in Bacillus subtilis assessed as reduction in biofilm thickness at 40 ug/ml incubated for 3 days by confocal microscopy; assay type: functional; design: scale not given: the % may be the effect or the level left
Bacillus subtilis [11] = assay: Antibacterial activity against Bacillus subtilis assessed as cell viability at 40 ug/ml incubated for 3 days by confocal microscopy; assay type: functional
Tyrosinase = Tyrosinase (Homo sapiens, UniProt P14679); assay: Inhibition of tyrosinase (unknown origin) assessed as reduction in melanin formation
Sequence of Tyrosinase (P14679 whole entry): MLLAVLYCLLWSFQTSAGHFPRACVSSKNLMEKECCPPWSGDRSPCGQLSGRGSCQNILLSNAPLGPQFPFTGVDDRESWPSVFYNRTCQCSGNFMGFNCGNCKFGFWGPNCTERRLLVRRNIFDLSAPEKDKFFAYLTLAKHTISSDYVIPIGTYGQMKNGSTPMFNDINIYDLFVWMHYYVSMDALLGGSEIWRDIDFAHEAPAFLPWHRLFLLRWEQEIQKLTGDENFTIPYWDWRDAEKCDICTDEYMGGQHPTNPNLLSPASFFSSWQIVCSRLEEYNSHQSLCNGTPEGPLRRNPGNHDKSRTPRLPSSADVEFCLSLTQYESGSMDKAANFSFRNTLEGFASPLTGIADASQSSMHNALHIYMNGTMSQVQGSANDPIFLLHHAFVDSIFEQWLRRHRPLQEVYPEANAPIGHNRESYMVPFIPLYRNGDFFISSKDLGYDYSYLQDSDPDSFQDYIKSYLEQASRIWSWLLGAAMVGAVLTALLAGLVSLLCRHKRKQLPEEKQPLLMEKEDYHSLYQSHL

COC(=O)C1=C(C)OC(C)(C)C1=O
activity at 20 min, 30 µM (CYP3A4): 57.1%

CC(C)Cc1ccc(C2=C/C(=C\c3ccc(Cl)cc3Cl)C(=O)O2)cc1
inhibition in vivo at 20 mg/kg (Rattus norvegicus [1]): 66.1%

COc1ccc(/C=C2/C=C(c3ccc(Br)cc3)OC2=O)cc1OC
IC50 [2]: 26.8 µg/mL (≈ 69.1 µM)

CC(C)O[C@@H]1OC(=O)[C@@H]2[C@H]1[C@@H]1C=C[C@H]2C1
LD50 (Diaphania hyalinata): 44.51 µM/g

Cc1cc(O)c2c(c1)C(c1c(O)cccc1O)OC2=O (stereo not drawn)
MIC (Globisporangium ultimum): 40 µg/mL (≈ 147 µM)

O=C(O)Cc1ccccc1Nc1c(Cl)cccc1Cl [DICLOFENAC]
inhibition in vivo at 10 mg/kg (Rattus norvegicus [3]): 78.6% | inhibition in vivo at 10 mg/kg (Mus musculus): 67.7%

CC(C)Cc1ccc(C(C)C(=O)O)cc1 (stereo not drawn) [IBUPROFEN]
UI [4]: 0.9

CC1(C)OC(c2ccc(S(C)(=O)=O)cc2)=C(c2cccc(F)c2)C1=O
IC50 [5]: 0.00832 µM | UI [6]: 1.5 | ED50 (Rattus norvegicus [7]): 0.008 mg/kg/day | inhibition in vivo at 3 mg/kg (Rattus norvegicus [8]): 47% | inhibition in vivo at 3 mg/kg (Rattus norvegicus [9]): 36%

O=C1OC(O)C(/C=C/c2ccccc2)=C1F (stereo not drawn)
IC50 (Phospholipase A2): 3 µM

CCCCC1=C(Br)/C(=C/Br)OC1=O
inhibition (INH) (Escherichia coli): 100% | Activity (Bacillus subtilis [10]): 25% | Activity (Bacillus subtilis [11]): 63%

CC1=C(O)C(=O)CO1
IC50 (Tyrosinase): 50 µM

Reference: ChEMBL document CHEMBL4393659, “Insights into the chemistry and therapeutic potential of furanones: A versatile pharmacophore” (Eur J Med Chem, 2019)
